Test results from patent US20140005163A1 (NOVARTIS AG, priority 2010, published 2014).

Tests used:
PI3K alpha = biological target: T1, PI3K alpha (Homo sapiens, UniProt P42336); assay: PI3K alpha kinase assay (Kinase-Glo luminescence); format: biochemical
T1 construct: p85(iSH2) fusion partner (see partner chain) (N); His tag (C); made in house; host or cells: baculovirus; Tn5 (Trichoplusia ni) or TiniPro insect cells
In short: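 Enzyme 10 nM PI3Kα EMV B1075; ATP 1 μM; PI 10 μg/mL; Tris-HCl pH 7.5 10 mM, MgCl2 3 mM, NaCl 50 mM, CHAPS 0.05%, DTT 1 mM; 60 min RT; Kinase-Glo luminescence; 4-parameter IC50 fit, 8 concentrations, single points.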

PI3K beta = biological target: T2, PI3K beta (Homo sapiens, UniProt P42338); assay: PI3K beta kinase assay (Kinase-Glo luminescence); format: biochemical
T2 construct: for the full-length p110-b subunit are generated and fused by overlapping PCR; p85(iSH2) fusion partner (see partner chain) (N); His tag (C); made in house; host or cells: baculovirus; Tn5 (Trichoplusia ni) or TiniPro insect cells
In short: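 Kinase-Glo luminescence after a 60 min room-temperature reaction gives remaining ATP. The reaction holds 25 nM p85(iSH2)-p110β full-length His-tagged construct, 1 μM ATP, 10 μg/mL PI, and eight compound concentrations at 0.45% DMSO final. IC50 values come from a four-parameter logistic fit.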

[1] = system: PKB Ser473 phosphorylation in Rat1-myr-HA-p110 alpha cells; assay: Reverse protein array assay, PKB Ser473 phosphorylation in Rat1-myr-p110 alpha cells; format: cell-based; details: 0.5 h, pAkt Ser473, 30 minutes compound incubation, read-out: p-PKB IC50
In short: (§1)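 After at least 20 h of culture, the p110 isoform-transfected Rat1 lines receive compound in an 8-step dilution series, keeping DMSO at 0.2%, for 30 minutes. Cells are then lysed and lysates arrayed on chips for fluorescence detection of Ser473-phosphorylated PKB.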

[2] = system: PKB Ser473 phosphorylation in Rat1-myr-HA-p110 delta cells; assay: Reverse protein array assay, PKB Ser473 phosphorylation in Rat1-myr-p110 delta cells; format: cell-based; details: read-out: p-PKB IC50
In short: as §1

PI3K delta = biological target: T3, PI3K delta (Homo sapiens, UniProt O00329); assay: PI3K delta kinase assay (Kinase-Glo luminescence); format: biochemical
T3 construct: for the full-length p110-d subunit are generated and fused by overlapping PCR; p85(iSH2) fusion partner (see partner chain) (N); His tag (C); made in house; host or cells: baculovirus; Tn5 (Trichoplusia ni) or TiniPro insect cells
In short: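 Lipid kinase activity of a His-tagged p110δ full-length/p85 iSH2 fusion (10 nM) toward bovine liver phosphatidylinositol (10 μg/mL) at 1 μM ATP, pH 7.5, 60 min, room temperature. ATP consumption is quantified by luciferase-based luminescence. Four-parameter logistic fitting gives IC50.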

[3] = system: PKB Ser473 phosphorylation in Rat1-myr-HA-p110 beta cells; assay: Reverse protein array assay, PKB Ser473 phosphorylation in Rat1-myr-p110 beta cells; format: cell-based; details: 0.5 h, pAkt Ser473, 30 minutes incubation, read-out: p-PKB IC50
In short: as §1

T2 sequence (P42338 with tags, fused parts or gaps limits assumed): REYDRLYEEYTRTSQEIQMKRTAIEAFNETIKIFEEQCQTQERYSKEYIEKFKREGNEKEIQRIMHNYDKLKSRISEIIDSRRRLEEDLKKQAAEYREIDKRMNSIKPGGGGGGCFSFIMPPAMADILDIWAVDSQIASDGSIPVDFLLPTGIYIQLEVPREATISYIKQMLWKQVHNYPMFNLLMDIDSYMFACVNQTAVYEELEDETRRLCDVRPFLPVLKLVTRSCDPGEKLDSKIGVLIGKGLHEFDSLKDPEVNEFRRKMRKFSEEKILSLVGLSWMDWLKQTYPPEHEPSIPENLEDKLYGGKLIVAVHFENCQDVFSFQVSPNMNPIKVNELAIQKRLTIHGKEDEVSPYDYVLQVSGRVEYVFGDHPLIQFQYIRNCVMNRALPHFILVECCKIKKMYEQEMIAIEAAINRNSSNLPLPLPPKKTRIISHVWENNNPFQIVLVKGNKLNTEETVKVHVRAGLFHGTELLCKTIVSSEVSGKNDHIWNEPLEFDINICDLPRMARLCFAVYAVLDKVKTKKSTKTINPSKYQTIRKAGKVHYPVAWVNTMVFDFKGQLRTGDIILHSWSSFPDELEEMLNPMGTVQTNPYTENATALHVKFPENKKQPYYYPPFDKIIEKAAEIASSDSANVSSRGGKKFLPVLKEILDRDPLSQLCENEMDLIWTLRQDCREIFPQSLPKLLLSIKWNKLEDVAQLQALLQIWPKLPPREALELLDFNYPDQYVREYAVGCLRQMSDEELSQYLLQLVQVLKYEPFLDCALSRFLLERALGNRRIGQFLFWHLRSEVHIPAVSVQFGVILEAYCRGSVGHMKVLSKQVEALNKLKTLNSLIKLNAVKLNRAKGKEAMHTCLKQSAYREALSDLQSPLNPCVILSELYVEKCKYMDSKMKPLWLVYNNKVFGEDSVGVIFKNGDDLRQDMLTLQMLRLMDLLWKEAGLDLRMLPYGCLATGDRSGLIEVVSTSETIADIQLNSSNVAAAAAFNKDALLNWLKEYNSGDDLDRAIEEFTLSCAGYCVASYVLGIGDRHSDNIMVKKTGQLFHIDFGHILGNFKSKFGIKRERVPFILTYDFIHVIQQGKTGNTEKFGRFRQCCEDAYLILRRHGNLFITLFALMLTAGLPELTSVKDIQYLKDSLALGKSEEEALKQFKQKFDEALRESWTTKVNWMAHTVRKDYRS
T1 sequence (P42336 with tags, fused parts or gaps limits assumed): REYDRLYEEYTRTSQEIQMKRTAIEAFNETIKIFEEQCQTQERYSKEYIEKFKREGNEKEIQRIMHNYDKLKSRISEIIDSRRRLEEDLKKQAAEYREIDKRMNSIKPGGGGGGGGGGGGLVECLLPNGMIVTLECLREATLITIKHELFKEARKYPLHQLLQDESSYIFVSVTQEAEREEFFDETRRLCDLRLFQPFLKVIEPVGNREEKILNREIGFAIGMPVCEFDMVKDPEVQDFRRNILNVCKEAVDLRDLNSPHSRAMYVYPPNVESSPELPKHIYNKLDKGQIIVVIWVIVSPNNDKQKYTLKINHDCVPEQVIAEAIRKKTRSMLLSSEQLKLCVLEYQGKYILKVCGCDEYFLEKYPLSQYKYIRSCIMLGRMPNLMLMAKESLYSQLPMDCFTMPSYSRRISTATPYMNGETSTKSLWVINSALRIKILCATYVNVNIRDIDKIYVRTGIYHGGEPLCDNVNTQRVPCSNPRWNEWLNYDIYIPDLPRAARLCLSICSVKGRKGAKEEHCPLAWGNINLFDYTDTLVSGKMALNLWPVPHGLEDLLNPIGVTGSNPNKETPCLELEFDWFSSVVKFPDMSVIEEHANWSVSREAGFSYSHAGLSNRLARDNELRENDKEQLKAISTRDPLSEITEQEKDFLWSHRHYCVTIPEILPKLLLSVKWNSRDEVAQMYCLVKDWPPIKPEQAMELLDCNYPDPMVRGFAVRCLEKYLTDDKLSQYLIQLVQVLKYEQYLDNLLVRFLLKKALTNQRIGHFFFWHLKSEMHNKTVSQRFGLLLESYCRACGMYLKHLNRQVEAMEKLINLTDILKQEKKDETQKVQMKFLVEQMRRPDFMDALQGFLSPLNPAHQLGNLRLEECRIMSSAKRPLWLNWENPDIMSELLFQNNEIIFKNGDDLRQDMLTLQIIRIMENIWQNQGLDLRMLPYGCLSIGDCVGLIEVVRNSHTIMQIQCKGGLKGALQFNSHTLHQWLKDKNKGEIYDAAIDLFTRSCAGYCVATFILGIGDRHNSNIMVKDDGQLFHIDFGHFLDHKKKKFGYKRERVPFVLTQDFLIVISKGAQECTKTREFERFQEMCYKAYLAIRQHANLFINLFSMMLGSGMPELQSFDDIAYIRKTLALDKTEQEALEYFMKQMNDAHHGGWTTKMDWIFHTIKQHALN
T3 sequence (O00329 with tags, fused parts or gaps limits assumed): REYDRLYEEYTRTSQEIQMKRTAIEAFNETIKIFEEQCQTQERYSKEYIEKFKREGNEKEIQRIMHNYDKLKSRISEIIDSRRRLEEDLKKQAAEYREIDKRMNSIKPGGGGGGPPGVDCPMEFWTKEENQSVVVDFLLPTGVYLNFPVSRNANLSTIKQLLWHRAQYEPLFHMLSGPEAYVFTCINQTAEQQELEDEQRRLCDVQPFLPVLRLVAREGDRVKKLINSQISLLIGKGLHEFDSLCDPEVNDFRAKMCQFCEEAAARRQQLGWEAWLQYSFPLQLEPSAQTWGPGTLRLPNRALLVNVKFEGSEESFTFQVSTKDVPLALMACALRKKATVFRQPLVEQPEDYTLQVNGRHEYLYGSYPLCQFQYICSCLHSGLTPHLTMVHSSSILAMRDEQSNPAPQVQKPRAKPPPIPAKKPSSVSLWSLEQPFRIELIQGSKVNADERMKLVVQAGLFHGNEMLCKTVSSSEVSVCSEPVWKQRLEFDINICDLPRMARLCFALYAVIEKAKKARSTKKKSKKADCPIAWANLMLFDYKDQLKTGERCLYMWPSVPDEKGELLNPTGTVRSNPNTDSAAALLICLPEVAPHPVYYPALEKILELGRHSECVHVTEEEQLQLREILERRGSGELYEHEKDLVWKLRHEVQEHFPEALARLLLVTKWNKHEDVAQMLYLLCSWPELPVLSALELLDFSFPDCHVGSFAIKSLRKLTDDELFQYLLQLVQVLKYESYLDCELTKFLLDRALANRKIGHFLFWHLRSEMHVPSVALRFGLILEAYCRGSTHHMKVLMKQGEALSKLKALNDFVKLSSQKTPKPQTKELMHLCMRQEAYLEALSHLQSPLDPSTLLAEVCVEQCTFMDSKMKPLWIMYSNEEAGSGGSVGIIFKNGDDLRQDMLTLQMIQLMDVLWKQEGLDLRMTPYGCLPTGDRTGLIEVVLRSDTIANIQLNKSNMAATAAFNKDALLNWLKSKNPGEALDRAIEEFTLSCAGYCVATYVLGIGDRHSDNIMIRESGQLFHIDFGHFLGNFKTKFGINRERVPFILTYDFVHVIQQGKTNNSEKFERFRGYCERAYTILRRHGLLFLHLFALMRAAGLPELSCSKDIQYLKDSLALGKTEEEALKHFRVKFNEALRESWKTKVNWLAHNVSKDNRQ

Row | SMILES | IC50 (PI3K alpha) | IC50 (PI3K beta) | IC50 [1] | IC50 [2] | IC50 (PI3K delta) | IC50 [3]
1 | [2H]C([2H])([2H])OCc1ncc(-c2ccc3ncc4c(c3c2)n(-c2cn(C)nc2C)c(=O)n4C)cc1OCC [Example 198, 1-(1,3-Dimethyl-1H-pyrazol-4-yl)-8-(5-ethoxy-6-trideuteromethoxymethyl-pyridin-3-yl)-3-methyl-1,3-dihydro-imidazo[4,5-c]quinolin-2-one] | 17 nM | 32 nM | 28 nM | 89 nM | 7 nM | 37 nM
2 | Cc1cc(-n2c(=O)n(C)c3cnc4ccc(-c5cnc(F)c(N)c5)cc4c32)n(C)n1 [Example 149.3, 8-(5-Amino-6-fluoro-pyridin-3-yl)-1-(2,5-dimethyl-2H-pyrazol-3-yl)-3-methyl-1,3-dihydro-imidazo[4,5-c]quinolin-2-one] | 63 nM | 202 nM | 49 nM | 168 nM | 38 nM | 84 nM
3 | COc1ncc(-c2ccc3ncc4c(c3c2)n(-c2cc(C)nn2C)c(=O)n4C)c(OC)n1 [Example 234.4, 8-(2,4-Dimethoxy-pyrimidin-5-yl)-1-(2,5-dimethyl-2H-pyrazol-3-yl)-3-methyl-1,3-dihydro-imidazo[4,5-c]quinolin-2-one] | 64 nM | 359 nM | 17 nM | 119 nM | 19 nM | 59 nM
4 | Cc1nn(C)cc1-n1c(=O)n(C)c2cnc3ccc(-c4cncc(N(C)C5CCC5)c4)cc3c21 [Example 174, 8-[5-(Cyclobutyl-methyl-amino)-pyridin-3-yl]-1-(1,3-dimethyl-1H-pyrazol-4-yl)-3-methyl-1,3-dihydro-imidazo[4,5-c]quinolin-2-one] | 17 nM | 36 nM | 9 nM | 12 nM | 23 nM | 10 nM
5 | CCN(CC)c1cncc(-c2ccc3ncc4c(c3c2)n(-c2cn(C)nc2C)c(=O)n4C)c1 [Example 95, 8-(5-Diethylamino-pyridin-3-yl)-1-(1,3-dimethyl-1H-pyrazol-4-yl)-3-methyl-1,3-dihydro-imidazo[4,5-c]quinolin-2-one] | 36 nM | 41 nM | < 5 nM | 25 nM | 24 nM | 17 nM
6 | Cc1nn(C)cc1-n1c(=O)n(C)c2cnc3ccc(-c4cncc(OC5CCC5)c4)cc3c21 [Example 60.1, 8-(5-Cyclobutoxy-pyridin-3-yl)-1-(1,3-dimethyl-1H-pyrazol-4-yl)-3-methyl-1,3-dihydro-imidazo[4,5-c]quinolin-2-one] | < 3 nM | 3 nM | < 5 nM | 33 nM | < 3 nM | 23 nM
7 | Cc1cc(-n2c(=O)n(C)c3cnc4ccc(-c5cnc(N)c(C(F)(F)F)c5)cc4c32)n(C)n1 [Example 25.6, 8-(6-Amino-5-trifluoromethyl-pyridin-3-yl)-1-(2,5-dimethyl-2H-pyrazol-3-yl)-3-methyl-1,3-dihydro-imidazo[4,5-c]quinolin-2-one] | 41 nM | 133 nM | 8 nM | 32 nM | 32 nM | 15 nM
8 | Cc1nn(C)c(C)c1-n1c(=O)n(C)c2cnc3ccc(-c4cnc(Cl)c(N)c4)cc3c21 [Example 152.3, 8-(5-Amino-6-chloro-pyridin-3-yl)-3-methyl-1-(1,3,5-trimethyl-1H-pyrazol-4-yl)-1,3-dihydro-imidazo[4,5-c]quinolin-2-one] | 44 nM | 79 nM | 123 nM | 78 nM | 7 nM | 113 nM
9 | Cc1nn(C)cc1-n1c(=O)n(C)c2cnc3ccc(-c4ccc(N5CCCC5)nc4)cc3c21 [Example 97, 1-(1,3-Dimethyl-1H-pyrazol-4-yl)-3-methyl-8-(6-pyrrolidin-1-yl-pyridin-3-yl)-1,3-dihydro-imidazo[4,5-c]quinolin-2-one] | 85 nM | – | 7 nM | 30 nM | 236 nM | 17 nM

Continued, values first:

Row | IC50 (PI3K alpha) | IC50 (PI3K beta) | IC50 [1] | IC50 [2] | IC50 (PI3K delta) | IC50 [3] | SMILES
10 | < 3 nM | 13 nM | 35 nM | 84 nM | 3 nM | 64 nM | CNS(=O)(=O)c1cccc(-c2ccc3ncc4c(c3c2)n(-c2cn(C)nc2C)c(=O)n4C)c1 [Example 39, 3-[1-(1,3-Dimethyl-1H-pyrazol-4-yl)-3-methyl-2-oxo-2,3-dihydro-1H-imidazo[4,5-c]quinolin-8-yl]-N-methyl-benzenesulfonamide]
11 | 11 nM | 62 nM | 30 nM | 116 nM | 26 nM | 26 nM | CCn1cc(-n2c(=O)n(C)c3cnc4ccc(-c5ccc(OC)c(OC)c5)nc4c32)c(C)n1 [Example 254, 8-(3,4-Dimethoxy-phenyl)-1-(1-ethyl-3-methyl-1H-pyrazol-4-yl)-3-methyl-1,3-dihydro-1,3,5,9-tetraaza-cyclopenta[a]naphthalen-2-one]
12 | 9 nM | 59 nM | 5 nM | 8 nM | 12 nM | 6 nM | CN(C)c1ccc(-c2ccc3ncc4c(c3c2)n(-c2cn(C)nc2Cl)c(=O)n4C)cn1 [Example 4.9, 1-(3-Chloro-1-methyl-1H-pyrazol-4-yl)-8-(6-dimethylamino-pyridin-3-yl)-3-methyl-1,3-dihydro-imidazo[4,5-c]quinolin-2-one]
13 | 10 nM | 81 nM | 40 nM | 111 nM | 6 nM | 119 nM | CCOCc1cc(-c2ccc3ncc4c(c3c2)n(-c2cn(C(C)C)nc2C)c(=O)n4C)cnc1N [Example 166.3, 8-(6-Amino-5-ethoxymethyl-pyridin-3-yl)-1-(1-isopropyl-3-methyl-1H-pyrazol-4-yl)-3-methyl-1,3-dihydro-imidazo[4,5-c]quinolin-2-one]
14 | 16 nM | 20 nM | 6 nM | 7 nM | 9 nM | 10 nM | CNc1ncc(-c2ccc3ncc4c(c3c2)n(-c2cn(C)nc2Cl)c(=O)n4C)cc1C [Example 119, 1-(3-Chloro-1-methyl-1H-pyrazol-4-yl)-3-methyl-8-(5-methyl-6-methylamino-pyridin-3-yl)-1,3-dihydro-imidazo[4,5-c]quinolin-2-one]
15 | 9 nM | 10 nM | 5 nM | 11 nM | < 3 nM | 11 nM | CCOCc1cc(-c2ccc3ncc4c(c3c2)n(-c2cn(C)nc2Cl)c(=O)n4C)cnc1N [Example 166.4, 8-(6-Amino-5-ethoxymethyl-pyridin-3-yl)-1-(3-chloro-1-methyl-1H-pyrazol-4-yl)-3-methyl-1,3-dihydro-imidazo[4,5-c]quinolin-2-one]
16 | 14 nM | 19 nM | 5 nM | 9 nM | 13 nM | 6 nM | Cc1nn(C)cc1-n1c(=O)n(C)c2cnc3ccc(-c4cnc(N)c(C(F)(F)F)c4)cc3c21 [Example 25.1, 8-(6-Amino-5-trifluoromethyl-pyridin-3-yl)-1-(1,3-dimethyl-1H-pyrazol-4-yl)-3-methyl-1,3-dihydro-imidazo[4,5-c]quinolin-2-one]
17 | 7 nM | 3 nM | < 5 nM | 14 nM | 13 nM | 10 nM | CCn1cc(-n2c(=O)n(C)c3cnc4ccc(-c5cnc(N)c(Cl)c5)cc4c32)c(C)n1 [Example 148.3, 8-(6-Amino-5-chloro-pyridin-3-yl)-1-(1-ethyl-3-methyl-1H-pyrazol-4-yl)-3-methyl-1,3-dihydro-imidazo[4,5-c]quinolin-2-one]
18 | 11 nM | 56 nM | 38 nM | 158 nM | 6 nM | 88 nM | Cc1cc(-n2c(=O)n(C)c3cnc4ccc(-c5cnc(C)c(O)c5)cc4c32)n(C)n1 [Example 185.2, 1-(2,5-Dimethyl-2H-pyrazol-3-yl)-8-(5-hydroxy-6-methyl-pyridin-3-yl)-3-methyl-1,3-dihydro-imidazo[4,5-c]quinolin-2-one]
